Values after ≈ are worked out from the molar mass of the structure shown. A value given as a limit tells only on which side of the number the result lay.

For the data set the following is noted: buffer; pH 7.4; 200.0 µM.
Turning to `O=C(CNC(=O)c1ccc2c(c1)OCO2)Nc1ncccc1O`, the solubility (kinetic) (commonly solubility judged after dilution from a stock solution rather than from solid) was over 47.3 µg/mL.
`COC(=O)COc1cccc(NC(=O)c2cc(OC)cc(OC)c2)c1` came in with a solubility (kinetic) of 49.6 µg/mL (≈ 144 µM).
For `Cc1cccc(NC(=O)CSc2cccc3cccnc23)c1` the value was 21.3 µg/mL (≈ 69.1 µM); for `CSc1ccc(CN2CCC(Cc3ccccc3)CC2)cc1`, 17.7 µg/mL (≈ 56.8 µM); for `COc1ccc(NS(=O)(=O)c2cc(NC(=O)c3ccccn3)ccc2OC)cc1Br`, 3.4 µg/mL (≈ 6.91 µM).
For `CC(C)[C@H](Nc1ccc(C(F)(F)F)cc1[N+](=O)[O-])C(=O)O.[Cl-]` the value was over 51.3 µg/mL; for `O=C(NCc1ccco1)/C(=C\c1ccccc1)NC(=O)c1ccccc1`, 17.2 µg/mL (≈ 49.7 µM); for `CC(=O)NC(=S)Nc1ccccc1F`, over 31.8 µg/mL.
With `COc1ccc(NC(=S)NC(=O)c2ccc3c(c2)OCCO3)cc1` the figure was 2.1 µg/mL (≈ 6.1 µM); with `Cc1cc(O)c(Sc2ccc(Cl)cc2)c(=O)[nH]1`, over 40.2 µg/mL; with `CCOc1ccc(N)cc1OC.Cl`, over 30.6 µg/mL.
In the case of `CCOC(=O)CN1C(=O)CC(c2ccc([N+](=O)[O-])cc2)C1=O` (centres undefined), the solubility (kinetic) was over 45.9 µg/mL.
With `CN(C)/C=C/C(=O)c1ccc(Cl)s1` the figure was over 32.4 µg/mL; with `Cc1ccc(C)c(-c2cc(C(=O)NC3CC3)c3ccccc3n2)c1`, 39.6 µg/mL (≈ 125 µM).
With `COc1ccccc1C(=O)OC(C)CN1CCN(C)CC1.Cl` (centres undefined) the figure was over 49.3 µg/mL.
`CSc1ccccc1C(=O)NCc1cccnc1` had a kinetic solubility of over 38.8 µg/mL.
For `O=C(NCCc1ccccn1)c1ccc(OC(F)F)cc1` the value was over 43.8 µg/mL; for `CNC(=O)c1cc(OCC(F)(F)F)ccc1OCC(F)(F)F`, 49.6 µg/mL (≈ 150 µM).
With `COCCCNC(=S)N1CCN(C)CC1` the figure was over 34.7 µg/mL; with `O=C(CSc1nc2c(c(=O)[nH]1)CCC2)Nc1ccc(F)cc1`, 10.7 µg/mL (≈ 33.5 µM); with `COc1ccccc1NC(=O)/C(=C/c1cccs1)NC(=O)c1ccco1`, over 55.3 µg/mL.
With `CCNC(=S)N/N=C(\C)c1cccc(OC)c1` the figure was over 37.7 µg/mL.
As for `CC(C)C(=O)Nc1ncc(Cc2ccccc2Cl)s1`, the solubility (kinetic) was under 0.3 µg/mL.
For `COc1ccc(/C=C/C(=O)OCC(=O)NC2CCCC(C)C2C)c(OC)c1` (centres undefined) the value was 5 µg/mL (≈ 13.3 µM); for `Cc1ccc(C)c(-n2c(C)nc3ccccc3c2=O)c1`, over 39.6 µg/mL.
With `CCCCN(C)CCNC(=O)c1cn(C)c(=O)c2c1c1ccccc1n2C` the figure was over 55.3 µg/mL; with `O=C(CCn1c(=O)oc2ccccc21)NCCC1=CCCCC1`, over 47.2 µg/mL.
For `COc1ccc2nc(C)c(C(N)=O)cc2c1` the value was over 32.4 µg/mL; for `COC(=O)C1=C(C)OC(N)=C(C#N)C12C(=O)Nc1ccccc12` (centres undefined), over 46.7 µg/mL; for `Cc1cc(OCc2nc3ccccc3s2)ccc1N`, 30.6 µg/mL (≈ 113 µM).
With `Nc1ccccc1-c1nc2ccccc2[nH]c1=O`, the solubility (kinetic) is 33.8 µg/mL (≈ 142 µM).
For `CNC(=S)N1CCN(c2nc3ccccc3s2)CC1` the value was 4 µg/mL (≈ 13.7 µM); for `CN1C(=O)NC(=O)/C(=C/c2ccc(C(=O)O)cc2)C1=O`, over 41.1 µg/mL.
`Cc1cccc2nc(CSc3ncccc3C(=O)O)cn12`: the kinetic solubility turned out to be 39.3 µg/mL (≈ 131 µM).
The molecule `Cc1ccc(CNc2nc(C)cs2)cc1` returned a solubility (kinetic) of 25.3 µg/mL (≈ 116 µM).
For `COc1cc(NC(=O)CCN2CCN(CCO)CC2)cc(OC)c1` the value was 44.5 µg/mL (≈ 132 µM); for `COc1cc(-c2cc(C(=O)Nc3cc(S(=O)(=O)N4CCOCC4)ccc3O)c3ccccc3n2)cc(OC)c1OC`, 3.3 µg/mL (≈ 5.69 µM).
As for `Cc1cc(NC(=O)c2cc([N+](=O)[O-])cc([N+](=O)[O-])c2)no1`, the solubility (kinetic) amounted to 9.8 µg/mL (≈ 33.5 µM).
`O=C(Nc1cccs1)N1CCN(c2ncccn2)CC1`: the kinetic solubility was over 43.4 µg/mL.
For `COc1ccccc1C(=O)C1CCCN(C(=O)c2ccco2)C1` (centres undefined) the value was over 47 µg/mL.
For `O=c1nc(-c2ccccc2)c2cc(Br)ccc2[nH]1` the value was 1.8 µg/mL (≈ 5.98 µM); for `Cc1cc(OC(=O)c2ccccc2Cl)ccc1N1C(=O)CCC1=O`, 19 µg/mL (≈ 55.3 µM); for `CCc1nnc(NC(=O)CCNC(=O)c2ccccc2Cl)s1`, over 50.8 µg/mL.
For `Cn1cccc1C(=O)OCC(=O)N1CCc2ccccc21` the value was 2.8 µg/mL (≈ 9.85 µM); for `CC(C)C(NC(=O)c1ccc(F)cc1)C(=O)N1CCN(c2ccccn2)CC1` (centres undefined), 25.8 µg/mL (≈ 67.1 µM).
Molecule `O=c1oc2ccccc2c(O)c1Cc1cc(Cl)c2cccnc2c1O` showed a kinetic solubility of over 53.1 µg/mL.
Regarding `CN1CCN(c2ncnc3nc[nH]c23)CC1`, the solubility (kinetic) came to 28.8 µg/mL (≈ 132 µM).
With `CC1(C)COC2(OC1)C(=O)Nc1ccccc12` the figure was over 35 µg/mL.
As to `S=C(NCc1ccccc1)N1CCn2cccc2C1c1ccncc1` (centres undefined), the kinetic solubility is 45.2 µg/mL (≈ 130 µM).
`COCCNc1nc(N)c([N+](=O)[O-])c(NC2CCCCC2)n1` returned a solubility (kinetic) of 7.2 µg/mL (≈ 23.2 µM).
With `COc1ccc(S(=O)(=O)NC(C)C(=O)NCc2ccncc2)cc1C` (centres undefined) the figure was 51.9 µg/mL (≈ 143 µM); with `Cc1cc(-c2onc(C)c2C(=O)Oc2ccc(Cl)cc2)no1`, 0.5 µg/mL (≈ 1.57 µM).
For `COc1ccc(S(=O)(=O)N2CCN(C)CC2)cn1` the value was over 40.7 µg/mL; for `O=C(NCCO)/C(=C/c1ccco1)NC(=O)c1ccco1`, 43.3 µg/mL (≈ 149 µM); for `O=C(Nc1cccc2ncccc12)c1ccccc1Cl`, 18.5 µg/mL (≈ 65.4 µM).
For `COc1cccc(NC(=O)Cn2cc(C=O)c3ccccc32)c1` the value was 0.5 µg/mL (≈ 1.62 µM); for `CCN(CC(=O)Nc1cc(Cl)ccc1C)C(=O)CC1CCCC1`, over 50.5 µg/mL.
Molecule `O=C(COc1ccccc1O)NC1CCCC1` yielded a solubility (kinetic) of over 35.3 µg/mL.
For `COc1cccc(-c2noc(CCC(=O)NCC3CCCO3)n2)c1` (centres undefined) the value was over 49.7 µg/mL; for `COc1ccccc1NC(=O)Nc1cccc(C)n1`, 0.4 µg/mL (≈ 1.55 µM); for `FC(F)(F)c1ccccc1NC1=NCCCS1`, over 39 µg/mL.
Molecule `CC(Nc1ccccc1)c1cccnc1` (centres undefined) showed a solubility (kinetic) of over 29.7 µg/mL.
`COc1ccccc1NS(=O)(=O)c1cc(N)ccc1N1CCOCC1` had a kinetic solubility of 5 µg/mL (≈ 13.8 µM).
With `Cc1cc2cc(CNC(=S)NC3CCCCC3)ccc2[nH]1` the figure was 12.5 µg/mL (≈ 41.5 µM).
For `CC1=C(C)CC(C(=O)NCc2c(F)cccc2Cl)C(C(=O)O)C1` (centres undefined) the value was over 51 µg/mL; for `O=C(NCCc1ccc(Cl)cc1)c1cc(=O)[nH]c2ccccc12`, 2.4 µg/mL (≈ 7.34 µM).
For `Cc1ccc(/C=C/C(=O)O)cc1S(=O)(=O)N1CCCc2ccccc21` the value was over 53.6 µg/mL.
`CC1(CCC(=O)N2CCCC(Nc3ccc(F)cc3)C2)CC1` (centres undefined) displayed a kinetic solubility of over 45.7 µg/mL.
For `Cl.N=c1sccn1CC(=O)Nc1ccc(Cl)cc1[N+](=O)[O-]` the value was 44.4 µg/mL.
For `COc1ccc(C)cc1NC(=O)Nc1ccccc1SC` the value was 1.3 µg/mL (≈ 4.3 µM); for `O=C(COc1ccccc1)N1CCN=C1SCc1cccc(F)c1`, 3.4 µg/mL (≈ 9.87 µM); for `CN(C)c1ccc(C(=O)N=c2sccn2C)cc1[N+](=O)[O-]`, 1.4 µg/mL (≈ 4.57 µM).
For `O=C(COc1ccc(Cl)cc1)NCCc1cnc[nH]1` the value was over 42 µg/mL; for `Cc1ccc(C(=O)OC(C)CN2CCN(C)CC2)cc1.Cl` (centres undefined), 40.8 µg/mL; for `COC1=C(N)C(=O)c2nc(-c3nc(C(=O)O)c(C)c(-c4ccc(OC)c(OC)c4O)c3N)ccc2C1=O`, 74.9 µg/mL (≈ 148 µM).
On to `COCCOc1ccc(C(F)(F)F)cc1N`, for which the solubility (kinetic) worked out at 31.9 µg/mL (≈ 136 µM).
With `COc1ccc(C(=O)Nc2cccc(OC(=O)c3ccco3)c2)cc1` the figure was 3.2 µg/mL (≈ 9.49 µM); with `O=c1c2ccccc2[nH]c(=S)n1Cc1ccc2c(c1)OCO2`, under 0.3 µg/mL.
With `O=C(COC(=O)Cc1ccc(Cl)cc1)NCc1cccs1` the figure was 35.1 µg/mL (≈ 108 µM); with `CCOC(=O)Nc1ccc(S(=O)(=O)Nc2onc(C)c2C)cc1`, 47.2 µg/mL (≈ 139 µM); with `O=C(c1ccc(Cl)cc1)n1cnc2ccccc21`, over 38.5 µg/mL.
As to `Cc1nc2cc(NC(=O)N3CCCC3)ccc2n1C`, the solubility (kinetic) is 29.4 µg/mL (≈ 114 µM).
`FC(F)(F)c1ccccc1-n1c(-c2cnccn2)n[nH]c1=S` gave a kinetic solubility of over 48.5 µg/mL.
In the case of `Cn1c(NCCO)nc2c1c(=O)n(Cc1ccc(F)cc1)c(=O)n2C`, the solubility (kinetic) amounted to 50.6 µg/mL (≈ 146 µM).
With `Fc1cccc(CNc2ncnc3cc(Cl)ccc23)c1F` the figure was 3.8 µg/mL (≈ 12.4 µM); with `Cc1ccsc1C(=O)NCc1ccc(Cl)cc1`, 1.8 µg/mL (≈ 6.77 µM); with `Cc1ccc(S(=O)(=O)Nc2nc3ccccc3nc2N2CCOCC2)cc1`, over 57.7 µg/mL.
The molecule `CNC(=S)Nc1ccc([N+](=O)[O-])cc1` registered a kinetic solubility of over 31.7 µg/mL.
For `COc1nc(C)nc(C)c1Oc1ccc(Cl)cc1Cl` the value was 1.5 µg/mL (≈ 5.01 µM); for `CCOc1ccc(NC(=O)NC(C)c2ccc3c(c2)OCO3)cc1` (centres undefined), 1.9 µg/mL (≈ 5.79 µM); for `O=C(NCCN1CCOCC1)c1cc(-c2cccc(O)c2)on1`, over 47.6 µg/mL.
For `CCOC(=O)COc1nc2c(c(-c3ccco3)c1C#N)CCc1ccccc1-2` the value was 1.5 µg/mL (≈ 4.01 µM); for `Cc1ccccc1NC(=O)CN1CCOCC1.Cl`, over 40.6 µg/mL.
With `CC(=O)NCC(=O)NNC1CC(=O)N(c2cccc(Cl)c2)C1=O` (centres undefined) the figure was over 50.8 µg/mL; with `CCC1CCC2(CC1)NC(=O)N(CC(=O)NCc1ccc(Cl)cc1)C2=O` (centres undefined), 3.7 µg/mL (≈ 9.79 µM); with `COc1ccccc1NC(=O)NC1CCCc2ccccc21` (centres undefined), 0.8 µg/mL (≈ 2.7 µM).
The molecule `Cc1ccc(S(=O)(=O)N(C)CC(=O)OCC(=O)c2ccc3c(c2)NC(=O)CO3)cc1` returned a solubility (kinetic) of 25 µg/mL (≈ 57.8 µM). This solubility kinetic lies about 31-fold higher than the previous one.
For `COc1ccc(C(=O)NCCCNC(=O)c2ccc(C)nc2)cc1` the value was over 49.1 µg/mL.
With `CN(CCc1ccccc1)c1ccc([N+](=O)[O-])cn1` the figure was 9.6 µg/mL (≈ 37.3 µM); with `Cc1ccc(C(=O)NCCCN2CCOCC2)c(C)c1`, over 41.5 µg/mL; with `COc1ccc2c(=O)c(C(=O)NCCc3ccccc3)c[nH]c2c1`, 5.2 µg/mL (≈ 16.1 µM).
For `O=C(NNC(=O)c1cccnc1)NC1CCCCC1` the value was over 39.3 µg/mL; for `O=C(c1ccc(F)cc1)C1CCN(C(=O)c2ccc(F)cc2)CC1`, over 49.4 µg/mL; for `O=C(COc1ccccc1Cl)NCCCNC(=O)c1ccncc1`, 44.7 µg/mL (≈ 129 µM).

Values taken from PubChem BioAssay AID1996.
